“Also recorded” adds a separate entry of the source. Structures can show the parent of a compound that is named as a salt.
What was measured:
[1] = test system: African green monkey model of human phacoemulsification surgery; test: Concentration-ranging study of phenylephrine and ketorolac, intraoperative irrigation, phacoemulsification surgical model, Example 6; assay type: in vivo
Protocol: (§1) In each case an aliquot of the formulation was injected into a balanced salt solution (BSS, Baxter Healthcare, produce code 1A7233) as the irrigation vehicle carrier to a particular final dosing concentration as described below. The studies also utilized Proparacaine HCl (0.5%, Bausch & Lomb), Tropicamide (1.0%, Bausch & Lomb) and Ciprofloxacin HCl (3%, Alcon) to the extent described below.
(§2) The mydriatic and anti-inflammatory properties of the test agents were evaluated in an African green monkey model of human phacoemulsification surgery. Prior to surgery, baseline measures and assessments were performed on both eyes in each monkey to determine pupil diameter, lens and iris integrity, corneal thickness, and anterior chamber flare and cell count by qualitative scoring under biomicroscopy and quantitative flare photometry using a Kowa FM-500 instrument. A phacoemulsification surgery with lens replacement with a polymethyl methacrylate (PMMA) artificial lens was performed using a Storz Premier anterior phacoemulsification machine. The procedure was only performed on the right eye to minimize surgery position variability, allow the left to serve as control, and to minimize the consequence of any possible vision loss induced.
Test animals were placed in a prone position under ketamine/xylazine anesthesia augmented with one drop of topical proparacaine. A small incision was made in the cornea of the right eye with a MVR 20 G lance blade, through which 0.4-0.6 mL of viscoelastic (2% hydroxypropyl methylcellulose, EyeCoat, Eyekon Medical) was introduced into the anterior chamber via a viscoelastic injector. A corneal incision was made 1.0 mm anterior to the limbus using a 2.65 mm straight clear cornea bi-beveled blade. Irrigation was applied with the phacoemulsification hand piece to remove viscoelastic and introduce the test perfusate. After irrigation for a total of four minutes, irrigation was stopped and the anterior chamber refilled with viscoelastic. A capsulorhexis was performed and the phacoemulsification tip reintroduced into the anterior chamber with the application of phacoemulsification energy to disrupt the lens and allow aspiration and lens fragment removal. Irrigation was extended for a period after lens removal to standardize intraocular perfusate delivery across all treatment groups (a total of 14 minutes during this phacoemulsification segment of the irrigation). Following the phacoemulsification and irrigation procedure, a PMMA intraocular lens (IOL) was inserted and an additional two minutes of irrigation perfumed, after which the corneal incision was closed with two 12.0 nylon sutures. Irrigation with a test fluid or vehicle control, as described below, was performed for a total of 20 minutes at a flow rate of 20 mL/min, prior to, during and after phacoemulsification and lens replacement.
(§3) In these studies, laser flare photometry was performed at baseline, 4.5, 24, 48 hours and 1 week after the initiation of the surgical procedure using a Kowa FM-500 (Kowa Company, Tokyo Japan). The Kowa FM-500 measures laser light scattering to quantify anterior chamber flare. A laser is directed into the anterior chamber and protein molecules, released into the anterior chamber during an inflammatory response, pass through the focal point scattering laser light. This light scattering is quantified by a photomultiplier tube as photon counts per millisecond. At each observation point, measurements were collected until seven acceptable readings (difference between two background measurements <15%) were obtained and the lowest and highest readings were deleted and the mean value+/−the standard deviation calculated, as specified by the manufacturer.
The time course of the mydriatic effect was documented through video recording of the pupil during the perfusion procedure. Pupil diameter and the fixed width of the lid speculum (11 mm) were measured from the screen image to allow calculation of the pupil diameter in millimeters.

[2] = test system: subjects undergoing unilateral cataract extraction with lens replacement (CELR); test: Phase 2b human clinical study, irrigation during cataract extraction with lens replacement (CELR), Example 10; assay type: in vivo; conditions: for Subjects Having Pupil Diameter <6 mm during CELR (number of subjects) / Subjects Having Pupil Diameter <6 mm during CELR (percent): intent-to-treat, n = 49 combination, 52 KE, 49 PE
Protocol: A Phase 2b human clinical study evaluated a ketorolac and phenylephrine combination drug composition, formulated in accordance with Formula 1 of the present invention-, for its effect on the maintenance of intra-operative mydriasis (pupil dilation) and reduction of postoperative pain and irritation resulting from cataract and other lens replacement surgery. The combination drug composition was diluted into a balanced salt solution irrigation carrier prior to intraocular administration during intraocular surgical procedures.
The subject Phase 2b study was a randomized, parallel group, vehicle-controlled, factorial design study, and was run to compare phenylephrine (PE), ketorolac (KE) and the combination drug composition containing both PE and KE in subjects undergoing unilateral cataract extraction with lens replacement (CELR) using a coaxial phacoemulsification process with insertion of an acrylic lens. Administration of test irrigation solutions occurred in a double-masked fashion. The study evaluated, in a four-arm full-factorial design, the contribution of the two active pharmaceutical ingredients (PE and KE, alone and in combination) to the maintenance of mydriasis and post-operative reduction in pain when administered diluted in balanced salt solution (BSS). The study also explored the effect of the combination drug composition, PE, and KE on postoperative inflammation. Subjects were randomized to one of the following four treatment arms in a 1:1:1:1 fashion: • a. BSS vehicle • b. 483 μM PE in BSS • c. 89 μM KE in BSS • d. the combination drug composition containing 483 μM PE and 89 μM KE in BSS.
All subjects in this study received preoperative mydriatics and anesthetics. In each of the four groups, the respective irrigation treatment was administered as a single irrigation of the anterior chamber of the eye during the CELR surgical procedure, with a mean of 8 minutes of exposure in this study. In addition, at the end of the procedure, the anterior chamber was filled with the irrigation treatment. The change in pupil diameter over time from surgical baseline (immediately prior to surgical incision) to the end of the surgical procedure (wound closure) was measured, as was postoperative pain on the day of operation as measured by the Visual Analog Scale (VAS) at 2, 4 6, 8 and 10-12 hours and at other times recorded by the patient prior to taking rescue pain medication.

[3] = cited from earlier work
[4] = test system: African green monkey model of human phacoemulsification surgery; test: Phenylephrine and ketorolac combination (90 μM PE, 30 μM KE) irrigation in phacoemulsification surgical model, Example 7; assay type: in vivo
Protocol: as §1
as §2, with “The procedure was only performed on the right eye to minimize surgery position variability, allow the left to serve as control, and to minimize the consequence of any possible vision loss induced.” left out
as §3, with “A laser is directed into the anterior chamber and protein molecules, released into the anterior chamber during an inflammatory response, pass through the focal point scattering laser light.” left out
The time course of the mydriatic effect was documented through video recording of the pupil during the perfusion procedure. Pupil diameter and the fixed width of the lid speculum (11 mm) were measured from the screen image to allow calculation of the pupil diameter in millimeters. […]

[5] = test system: African green monkeys undergoing phacoemulsification surgery with lens replacement; test: GLP toxicology (safety) study of PE-KE irrigation in phacoemulsification surgery, Example 9; assay type: in vivo, African green monkey; conditions: tropicamide control group; thirty seconds after intracameral 150 μl BSS alone
Protocol: as §1
The mydriatic and anti-inflammatory properties of the test agents were evaluated in an African green monkey model of human phacoemulsification surgery. Prior to surgery, baseline measures and assessments were performed on both eyes in each monkey to determine pupil diameter, lens and iris integrity, corneal thickness, and anterior chamber flare and cell count by qualitative scoring under biomicroscopy and quantitative flare photometry using a Kowa FM-500 instrument. […]
A nonclinical GLP toxicology study was carried out in African green monkeys. […] Three concentrations were evaluated: 720 μM PE and 90 μM KE (720:90 μM) in the low concentration group, 2160 μM PE and 270 μM KE (2160:270 μM) in the mid concentration group, and 7200 μM PE and 900 μM KE (7200:900 μM) in the high concentration group.
A separate control group was evaluated as well. […]

Compound: O=C(c1ccccc1)c1ccc2n1CCC2C(=O)O (racemic) [ketorolac, (+/−)-5-Benzoyl-2,3-dihydro-1H-pyrrolizine-1-carboxylic acid:2-amino-2(hydroxymethyl)-1,3-propanediol (1:1)]
- flare measurements versus control at 24 and 48 hours ([1]; high and mid dose ketorolac, not statistically significant): remained lower relative to the control group
- mydriasis relative to BSS alone ([1]; ketorolac 3-30 μM in BSS, initial two minutes before phenylephrine): No statistical differences; also recorded: did not result in a change in mydriasis substantially different from that observed with BSS alone
- flare measures / anterior chamber inflammation versus BSS control at 4.5 hours ([1]; mid (10 μM) and high (30 μM) ketorolac groups combined, F=5.17, P<0.0223): statistically significant difference; also recorded: positive effect of ketorolac on anterior chamber inflammation
- anti-miotic effect ([2]; 89 μM KE with 483 μM PE): provided an anti-miotic effect on top of the effect of phenylephrine
- subjects with extreme constriction (pupil reduction of 2.5 mm or more) ([2]; 483 μM PE and/or 89 μM KE in BSS): 21%
- Subjects Having Pupil Diameter <6 mm during CELR (number of subjects) [2]: 18
- Subjects Having Pupil Diameter <6 mm during CELR (percent) [2]: 35%
- solubility of three crystal forms ([3]; water): equally soluble in water

Compound: CNC[C@H](O)c1cccc(O)c1 [phenylephrine, (−)-m-Hydroxy-a-[(methylamino)methyl]benzyl alcohol hydrochloride]
- pupil dilation after adding phenylephrine to ketorolac or BSS perfusate ([1]; 30 μM phenylephrine added at two minutes): rapid dilation occurred
- maximal mydriasis attained, dependence on concentration ([1]; 3, 10, 30, 90 μM): concentration-dependent
- flare measures relative to tropicamide control ([1]; all time points, Student Newman-Keuls, hydrochloride): no treatment effect on flare measures; also recorded: no significant difference between treatment groups
- mean dilation (pupil diameter) at later time points ([1]; high phenylephrine group (30 μM), approaches anatomic limit): ~8.3 mm
- concentration resulting in mydriasis exceeding preoperative topical 1% tropicamide ([1]; in BSS perfusate): ≥ 10 µM
- mydriasis onset and maintenance (video pupil data) ([1]; phenylephrine 3-90 μM in BSS anterior chamber perfusate): rapid onset mydriasis which was maintained throughout the surgical procedure
- flare photometry and pachymetry measures (anterior chamber inflammation, corneal edema) ([1]; phenylephrine added to perfusate): did not indicate a reduction in anterior chamber inflammation or corneal edema
- Subjects Having Pupil Diameter <6 mm during CELR (number of subjects) [2]: 11
- Subjects Having Pupil Diameter <6 mm during CELR (percent) [2]: 22%
- solubility ([3]; water and alcohol): freely soluble in water and alcohol

Compound: tropicamide
- maximal pupil dilation relative to phenylephrine groups ([1]; two drops 1% topical 20 minutes before BSS irrigation): lower maximal dilation than exhibited by the mid, high and highest concentration phenylephrine groups
- mean pupil diameter ([4]; control arm of previous efficacy studies, preoperative topical 1% tropicamide): 5.9 mm
- time at which pupil diameter plateaued ([4]; monkey, in vivo): approximately 2.5 minutes
- maximal dilation relative to PE-KE group ([4]; topical tropicamide 20 minutes before BSS irrigation): lower maximal dilation than exhibited by the PE-KE treatment group
- pupil diameter [5]: 5.18±0.18 mm
